Earlier results in patent US11096912B2, “Valaciclovir and celecoxib combination for functional somatic syndromes” (INNOVATIVE MED CONCEPTS, LLC, priority 2012, dated 2021).

System: fibromyalgia patients
Conditions: valacyclovir alone; J. Rheumatology (2004) 31, 783-784

Question: With `CC(C)[C@H](N)C(=O)OCCOCn1cnc2c(=O)[nH]c(N)nc21` [valacyclovir] as the compound, how does the “treatment of fibromyalgia patients” value read?
Answer: not successful
